The results in this text go back to patent US8871929B2, “Fused-imidazoyl compounds useful as antimicrobial agents” (Merck Sharp & Dohme Corp., priority 2010, dated 2014).

In general, MIC refers to the least concentration at which growth counts as inhibited.

In brackets after ≈: the same amount, converted by molar mass.

For this test, the system named is Staphylococcus aureus ATCC29213. Briefly: Susceptibility testing (MIC determination), broth microdilution. It counts as cell-based. Particulars: Mueller Hinton broth, 96-well plate, overnight incubation at 35° C., read-out: MIC Staph. aureus ATCC-29213. As to the method: Compounds useful in the method of the invention were investigated for their utility as antimicrobial agents in the following assay. Susceptibility testing (MIC determinations) was performed using the standard broth microdilution methodology precisely as described in the Clinical Laboratory Standards Institute Document M7-A6; Methods for Dilution Antimicrobial Susceptibility Tests for Bacteria That Grow Aerobically; […] To perform the test, a series of 0.1 ml media in a 96-well plate is prepared with Mueller Hinton broth to which various concentrations of the test compound are added. The media are then inoculated with a standardized suspension of the test organism, Staphylococcus aureus ATCC29213. After overnight incubation at 35° C., the tests are examined and the minimal inhibitory concentration (MIC) is determined. MIC is defined as the lowest concentration of an antimicrobial agent that prevents visible growth of a microorganism in the broth microdilution susceptibility test
A general note: Dilution methods test growth across graded concentrations, often in twofold steps.
With `Cn1ccc2cc(-c3nc4cnccn4c3NCC(=O)N3CCN(c4c(Cl)cncc4Cl)CC3)ccc21` [Compound 22], the minimal inhibitory concentration (MIC) stood at 8 µg/mL (≈ 14.9 µM).
Turning to `COC(=O)c1ccn2c(NCC(=O)N3CCN(c4c(Cl)cncc4Cl)CC3)c(-c3ccc(N4CCOCC4)cc3)nc2c1` [Compound 84], the MIC was found to be 0.125 µg/mL (≈ 0.2 µM).
Under `O=C(CNc1c(-c2ccc(N3CCOCC3)cc2)nc2cccc(C(F)(F)F)n12)N1CCN(c2c(Cl)cncc2Cl)CC1` [Compound 80] stands 0.25 µg/mL (≈ 0.394 µM); under `CCN1CCCc2cc(-c3nc4cnccn4c3NCC(=O)N3CCN(c4c(Cl)cncc4Cl)CC3)ccc21` [Compound 11], 0.5 µg/mL (≈ 0.884 µM); under `CN1CCOc2cc(-c3nc4cnccn4c3NCC(=O)N3CCN(c4c(Cl)cncc4Cl)CC3)ccc21` [Compound 10], 0.5 µg/mL (≈ 0.903 µM).
On to `CC(C)N1CCc2cc(-c3nc4cnccn4c3NCC(=O)N3CCN(c4c(Cl)cncc4Cl)CC3)ccc21` [Compound 15], for which the MIC came out at 1 µg/mL (≈ 1.77 µM).
Under `CN(C)c1ccc(-c2nc3cnccn3c2NCC(=O)N2CCC(c3cccc4ccccc34)CC2)cc1` [Compound 62] stands 8 µg/mL (≈ 15.9 µM); under `O=C(CNc1c(-c2ccc(N3CCCCC3)nc2)nc2cnccn12)N1CCN(c2c(Cl)cncc2Cl)CC1` [Compound 8], 0.44 µg/mL (≈ 0.777 µM); under `Cc1ccc(Cl)cc1N1CCN(C(=O)CNc2c(-c3ccc(N(C)C)cc3)nc3cnccn23)CC1` [Compound 60], 8 µg/mL (≈ 15.9 µM).
To `N#Cc1ccccc1N1CCN(C(=O)CNc2c(-c3ccc(N4CCCC4)cc3)nc3cnccn23)CC1` [Compound 46] belongs 0.313 µg/mL (≈ 0.618 µM); to `CCCN1CCc2cc(-c3nc4cnccn4c3NCC(=O)N3CCN(c4c(Cl)cncc4Cl)CC3)ccc21` [Compound 17], 2 µg/mL (≈ 3.54 µM).
Under `CN(C)c1ccc(-c2nc3cnccn3c2NCC(=O)N2CCN(c3ccccc3C#N)CC2)cc1` [Compound 58] stands 6 µg/mL (≈ 12.5 µM).
Take `Cc1cccc2nc(-c3ccc(N4CCOCC4)nc3)c(NCC(=O)N3CCN(c4c(Cl)cncc4Cl)CC3)n12` [Compound 5]: the MIC stood at 0.25 µg/mL (≈ 0.43 µM).
To `CC(C)c1ccc(-c2nc3cnccn3c2NCC(=O)N2CCN(c3ncccc3C#N)CC2)cc1` [Compound 67] belongs 4 µg/mL (≈ 8.32 µM); to `O=C(CNc1c(-c2ccc(N3CCOCC3)cc2)nc2cccc(Cl)n12)N1CCN(c2c(Cl)cncc2Cl)CC1` [Compound 79], 0.06 µg/mL (≈ 0.0998 µM).
Take `O=C(CNc1c(-c2cnc(N3CCCCC3)nc2)nc2cnccn12)N1CCN(c2c(Cl)cncc2Cl)CC1` [Compound 21]: the MIC turned out to be 4 µg/mL (≈ 7.05 µM).
Consider `O=C(CNc1c(-c2ccc(N3CCCC3)cc2)nc2ccccn12)N1CCN(c2ccncc2Cl)CC1` [Compound 42], for which the MIC was determined as 2.5 µg/mL (≈ 4.84 µM).
Regarding `CCc1ccc(-c2nc3cnccn3c2NCC(=O)N2CCN(c3c(Cl)cccc3Cl)CC2)s1` [Compound 18], the minimum inhibitory concentration (MIC) worked out at 3 µg/mL (≈ 5.82 µM).
To `O=C(CNc1c(-c2ccc(N3CCOCC3)nc2)nc2cnccn12)N1CCN(c2c(Cl)cncc2Cl)CC1` [Compound 7] belongs 0.4 µg/mL (≈ 0.704 µM); to `O=C(CNc1c(-c2ccc(N3CCSCC3)nc2)nc2cnccn12)N1CCN(c2c(Cl)cncc2Cl)CC1` [Compound 3], 0.125 µg/mL (≈ 0.214 µM).
For the molecule `CCN1CCc2cc(-c3nc4cnccn4c3NCC(=O)N3CCN(c4c(Cl)cncc4Cl)CC3)ccc21` [Compound 33], the MIC was found to be 0.19 µg/mL (≈ 0.345 µM).
To `O=C(CNc1c(-c2ccc(N3CCOCC3)cc2)nc2ccc(F)cn12)N1CCN(c2c(Cl)cncc2Cl)CC1` [Compound 83] belongs 0.125 µg/mL (≈ 0.214 µM); to `CCc1ccc(-c2nc3cnccn3c2NCC(=O)N2CCN(c3c(Cl)cncc3Cl)CC2)s1` [Compound 16], 2 µg/mL (≈ 3.87 µM); to `N#Cc1cccnc1N1CCN(C(=O)CNc2c(-c3ccc(N4CCCC4)cc3)nc3cnccn23)CC1` [Compound 47], 0.625 µg/mL (≈ 1.23 µM).
Under `Cc1cccc(C)c1N1CCN(C(=O)CNc2c(-c3ccc(N4CCCC4)cc3)nc3ccccn23)CC1` [Compound 37] stands 0.5 µg/mL (≈ 0.983 µM).
As to `Cc1ccc(Cl)cc1N1CCN(C(=O)CNc2c(-c3ccc(N4CCCC4)cc3)nc3cnccn23)CC1` [Compound 50], the MIC stood at 2.5 µg/mL (≈ 4.72 µM).
In the case of `CCCN1CCCc2cc(-c3nc4cnccn4c3NCC(=O)N3CCN(c4c(Cl)cncc4Cl)CC3)ccc21` [Compound 25], the MIC stood at 8 µg/mL (≈ 13.8 µM).
To `CN(C)c1ccc(-c2nc3ccccn3c2NCC(=O)N2CCN(c3ccccc3Cl)CC2)cc1` [Compound 31] belongs 5 µg/mL (≈ 10.2 µM); to `O=C(CNc1c(-c2ccc(N3CCCC3)cc2)nc2cnccn12)N1CCN(c2ccncc2Cl)CC1` [Compound 51], 5 µg/mL (≈ 9.67 µM); to `CN1CCCc2cc(-c3nc4cnccn4c3NCC(=O)N3CCN(c4c(Cl)cncc4Cl)CC3)ccc21` [Compound 13], 0.96 µg/mL (≈ 1.74 µM).
Regarding `O=C(CNc1c(-c2ccc(N3CCCC3)cc2)nc2ccccn12)N1CCN(c2c(Cl)cccc2Cl)CC1` [Compound 41], the minimal inhibitory concentration (MIC) came to 0.313 µg/mL (≈ 0.57 µM).
Turning to `CCN1CCc2cc(-c3nc4cnccn4c3NCC(=O)N3CCN(c4ccccc4C#N)CC3)ccc21` [Compound 19], the MIC stood at 4 µg/mL (≈ 7.9 µM).
Take `CCN1CCc2cc(-c3nc4cnccn4c3NCC(=O)N3CCN(c4ncccc4C#N)CC3)ccc21` [Compound 26]: the MIC came to 8 µg/mL (≈ 15.8 µM).
Under `O=C(CNc1c(-c2ccc(N3CCOCC3)cc2)nc2ccccn12)N1CCN(c2c(Cl)cncc2Cl)CC1` [Compound 73] stands 0.09 µg/mL (≈ 0.159 µM); under `O=C(CNc1c(-c2ccc(N3CCCC3)cc2)nc2ccccn12)N1CCN(c2c(Cl)cncc2Cl)CC1` [Compound 27], 0.06 µg/mL (≈ 0.109 µM).
Under `Cc1ccccc1N1CCN(C(=O)CNc2c(-c3ccc(N4CCCC4)cc3)nc3ccccn23)CC1` [Compound 34] stands 5 µg/mL (≈ 10.1 µM).
As for `CC(C)N1CCCc2cc(-c3nc4cnccn4c3NCC(=O)N3CCN(c4c(Cl)cncc4Cl)CC3)ccc21` [Compound 14], the MIC was determined as 1 µg/mL (≈ 1.73 µM).
Under `CC(C)N1CCCc2cc(-c3nc4cnccn4c3NCC(=O)N3CCN(c4ccccc4C#N)CC3)ccc21` [Compound 24] stands 8 µg/mL (≈ 15 µM); under `O=C(CNc1c(-c2ccc(N3CCCC3)cc2)nc2cnccn12)N1CCC(c2cccc3ccccc23)CC1` [Compound 52], 5 µg/mL (≈ 9.42 µM).
For the molecule `O=C(CNc1c(-c2ccc(N3CCCC3)nc2)nc2cnccn12)N1CCN(c2c(Cl)cncc2Cl)CC1` [Compound 9], the MIC was determined as 0.46 µg/mL (≈ 0.833 µM).
For the molecule `CN(C)c1ccc(-c2nc3ccccn3c2NCC(=O)N2CCN(c3ncccc3C#N)CC2)cc1` [Compound 55], the MIC was found to be 6 µg/mL (≈ 12.5 µM).
Consider `Cc1ccccc1C1CCN(C(=O)CNc2c(-c3ccc(N4CCCC4)cc3)nc3ccccn23)CC1` [Compound 43], for which the minimum inhibitory concentration (MIC) was 8 µg/mL (≈ 16.2 µM).
To `CN(C)c1ccc(-c2nc3ccccn3c2NCC(=O)N2CCN(c3c(Cl)cncc3Cl)CC2)cc1` [Compound 28] belongs 0.31 µg/mL (≈ 0.591 µM); to `Cc1ccc(Cl)cc1N1CCN(C(=O)CNc2c(-c3ccc(N4CCCC4)cc3)nc3ccccn23)CC1` [Compound 40], 1 µg/mL (≈ 1.89 µM); to `CC(C)c1ccc(-c2nc3cnccn3c2NCC(=O)N2CCN(c3ccccc3C#N)CC2)cc1` [Compound 66], 8 µg/mL (≈ 16.7 µM).
To `Cc1cccc2nc(-c3ccc(N4CCOCC4)cc3)c(NCC(=O)N3CCN(c4c(Cl)cncc4Cl)CC3)n12` [Compound 76] belongs 0.03 µg/mL (≈ 0.0517 µM); to `CSc1ccccc1N1CCN(C(=O)CNc2c(-c3ccc(N4CCCC4)cc3)nc3cnccn23)CC1` [Compound 49], 5 µg/mL (≈ 9.48 µM); to `CN(C)c1ccc(-c2nc3cnccn3c2NCC(=O)N2CCN(c3ncccc3C#N)CC2)cc1` [Compound 59], 6 µg/mL (≈ 12.5 µM).
